Measured values from the NIST ThermoML archive (doi:10.1016/j.jct.2013.11.038).
“And” between values parts separate entries of the source, which are not always exact repeats. Equal entries are not always repeated. Numbers after ± are expanded uncertainties.

Experiments:
[1] = Molar enthalpy of transition or fusion; conditions: Crystal; DSC
[2] = Crystal; for vapor or sublimation pressure: Calculated from knudsen effusion weight loss; for Normal melting temperature: DTA
[3] = molar heat capacity at constant pressure; conditions: 101.33 kPa, Crystal, Large sample (1 g) DSC

O=C1c2ccccc2-c2cccc3cccc1c23 [7H-benz[de]anthracen-7-one]
Conditions	Molar enthalpy of transition or fusion [kcal/mol]	Normal melting temperature [°C]
[1]	6.3 ± 0.179	–
[2]	–	173.63 ± 2

Conditions	molar heat capacity at constant pressure [J/K/mol]	vapor or sublimation pressure
[2], 360.04 K	–	5.7e-06 ± 3e-07 kPa [middle of 4 runs]
[2], 369.32 K	–	1.67e-05 ± 9e-07 kPa [middle of 4 runs]
[2], 380.12 K	–	5.13e-05 ± 2.6e-06 kPa [middle of 6 runs]
[2], 390.32 K	–	0.0001425 ± 7.3e-06 kPa [middle of 6 runs]
[2], 400.17 K	–	0.0003806 ± 1.9e-05 kPa [middle of 7 runs]
[2], 410.37 K	–	0.0009607 ± 4.8e-05 kPa [middle of 6 runs]
[3], 300.47 K	257.2 ± 11	–
[3], 305.43 K	262.2 ± 11	–
[3], 310.4 K	265.7 ± 11	–
[3], 315.36 K	270.5 ± 12	–
[3], 320.32 K	275 ± 12	–

O=C(Oc1ccccc1)Oc1ccccc1 [diphenyl carbonate]
[2]
Conditions	vapor or sublimation pressure
302.18 K	2.22e-05 ± 1.2e-06 kPa [middle of 5 runs]
308.17 K	5.05e-05 ± 2.6e-06 kPa [middle of 5 runs]
314.32 K	0.0001144 ± 5.9e-06 kPa [middle of 7 runs]
320.25 K	0.0002424 ± 1.3e-05 kPa [middle of 7 runs]
326.23 K	0.0005075 ± 2.6e-05 kPa [middle of 7 runs]
332.24 K	0.001043 ± 0.00011 kPa [middle of 6 runs]

O=C(O)c1ccccc1 [benzoic acid]
Conditions	Molar enthalpy of transition or fusion [kcal/mol]	Normal melting temperature [°C]
[1]	4.28 ± 0.127	–
[2]	–	122.22 ± 2

Conditions	molar heat capacity at constant pressure [J/K/mol]	vapor or sublimation pressure
[2], 269.3 K	–	2.1e-06 ± 1e-07 kPa and 2.2e-06 ± 1e-07 kPa
[2], 275.04 K	–	5.1e-06 ± 3e-07 kPa and 5e-06 ± 3e-07 kPa and 4.9e-06 ± 3e-07 kPa
[2], 281.33 K	–	1.24e-05 ± 7e-07 kPa [middle of 4 runs]
[2], 287.28 K	–	2.71e-05 ± 1.4e-06 kPa [middle of 7 runs]
[2], 293.19 K	–	5.78e-05 ± 3e-06 kPa [middle of 6 runs]
[2], 299.18 K	–	0.0001196 ± 6.2e-06 kPa [middle of 7 runs]
[2], 305.18 K	–	0.0002454 ± 1.3e-05 kPa [middle of 7 runs]
[2], 311.17 K	–	0.0004925 ± 2.5e-05 kPa [middle of 7 runs]
[2], 317.13 K	–	0.0009533 ± 4.8e-05 kPa [middle of 6 runs]
[3], 308.15 K	152.1 ± 6.5	–
[3], 318.15 K	157.3 ± 6.7	–
[3], 328.15 K	161.6 ± 6.9	–
[3], 338.15 K	166.9 ± 7.1	–
[3], 348.15 K	170.8 ± 7.2	–
[3], 358.15 K	175.6 ± 7.5	–
[3], 368.15 K	180 ± 7.6	–
[3], 378.15 K	186.9 ± 7.9	–

CCCCCCCCCCCCCCCCCC [octadecane]
Conditions	Molar enthalpy of transition or fusion [kcal/mol]	Normal melting temperature [°C]
[1]	14.7 ± 0.406	–
[2]	–	28.31 ± 2

Conditions	molar heat capacity at constant pressure, 283.85 K [J/K/mol]	molar heat capacity at constant pressure, 285.5 K [J/K/mol]	molar heat capacity at constant pressure, 287.15 K [J/K/mol]	molar heat capacity at constant pressure, 288.81 K [J/K/mol]	molar heat capacity at constant pressure, 290.46 K [J/K/mol]	vapor or sublimation pressure, 286.34 K	vapor or sublimation pressure, 289.28 K	vapor or sublimation pressure, 292.27 K	vapor or sublimation pressure, 295.17 K	vapor or sublimation pressure, 297.99 K
[2]	–	–	–	–	–	2e-06 ± 1e-07 kPa [middle of 4 runs]	3.1e-06 ± 2e-07 kPa [middle of 4 runs]	5.9e-06 ± 3e-07 kPa [middle of 4 runs]	1.02e-05 ± 6e-07 kPa and 1.07e-05 ± 6e-07 kPa and 1.01e-05 ± 6e-07 kPa	1.9e-05 ± 1e-06 kPa [middle of 5 runs]
[3]	448.6 ± 19	455.2 ± 19	460.7 ± 20	467.3 ± 20	472.4 ± 20	–	–	–	–	–
